Data as given in patent US20050014680A1, “Methods and compositions for enhancing neuron growth and survival” (priority 2003, published 2005).

How the values were obtained:
[1] = tested on: dissociated E10.5 trigeminal neurons; assay: Survival assay, Tunel staining of low-density dissociated E10.5 trigeminal neurons; format: cell-based, mouse; conditions: serum-free medium, 24 hr; 150 nM Kn252a; 100 ng/ml FK506, 1 μg/ml CsA
Description: Embryos were obtained from timed pregnancies with the noon of the plug date defined as […]. For whole-mount studies, embryos were processed and stained with anti-Neurofilament antibody (clone 2H3, DSHB) and processed for DAB or fluorescent staining. Sections were stained with anti-NF-M antibody, anti-TAG-1 antibody, anti-Lim1/2, anti-Pax7, anti-Nkx2.2, anti HNF-3b, anti-islet-1 (all from DSHB), Tuj-1 (ABR) and anti-TrkC (Chemicon). Secondary antibodies used were HRP conjugated goat anti-mouse antibody (Jackson Immunoresearch), Alexa-594 and Alexa-488 conjugated goat anti-mouse antibody (Molecular Probes) as well as anti-mouse and anti-rabbit ABC kits (Vector). Tunel assays were performed according to the manufacturer's recommendations (Roche).
Trigeminal ganglia were incubated for 5 minutes at 37° C. with 10 mg/ml trypsin (Sigma)+DNAse (Sigma) in calcium- and magnesium-free (CMF) HBSS. After removal of the trypsin solution, the ganglia were washed 3 times with Hams F12 medium containing 10% heat-inactivated horse serum washed 3 times with CMF-HBSS and were gently triturated in 1 ml CMF-HBSS+DNAse with a fire-polished, siliconised Pasteur pipettes to give a single cell suspension. […]

NFATc4 = assay: Cytoplasmic-to-nuclear translocation of EGFP-NFATc4 in cortical neurons; format: cell-based, mouse and rat
Experimental: (§1) The reporter plasmid NFAT-Luciferase and the EGFP-NFATc4 plasmid have been described elsewhere (Graef et al., 1999). The TrkA constructs have been previously described (Ming et al., 1999). For luciferase assays the cells were treated 16 hrs after transfection with 100 ng/ml recombinant BDNF (Gibco) or 100 ng/ml recombinant NGF. For studies with FK506/CsA the cells were preincubated for 10 min with the inhibitors before stimulation and the inhibitors were present during the stimulation. Cells were lysed for luciferase assays 18 hrs after stimulation and luciferase assays performed according to standard protocols. For microscopy, neurons were fixed in 4% formaldehyde/PBS. Co-transfected m yc-epitope tagged Trk-A was visualized by staining with anti-myc antibody (clone 4E10, Pharmingen), followed by Alexa-594 conjugated goat anti-mouse antibody (Molecular Probes).

[2] = tested on: NFAT-dependent transcription; assay: NFAT-luciferase reporter assay in cortical neurons; format: cell-based, mouse and rat; conditions: E15.5 cultured cortical neurons, 100 ng/ml, lysed 18 hrs after stimulation
Experimental: as §1

[3] = tested on: trigeminal neuron growth cones; assay: Growth cone morphology and collapse, trigeminal explant cubes stained with phalloidin; format: cell-based, mouse; conditions: c2/c3/c4 triple mutant ganglia or wild-type ganglia cultured with CsA and FK506, 30 min
Experimental: E10.5 trigeminal explants were cultured in either collagen or matrigel (Becton-Dickinson) gels in the presence of NT-3 (Gibco) and NGF (Gibco) as previously described (O'Connor and Tessier-Lavigne, 1999). The explants were then fixed in 4% PFA/PBS and axons were visualized by wholemount immunostaining with the anti-NF-M antibody (O'Connor and Tessier-Lavigne, 1999). For cultures on laminin, eight-well chamber tissue culture slides were coated with poly-L-lysine followed by laminin. Trigeminal ganglia were either dissociated or cut into small cubes and cultured in medium supplemented with NT-3 and NGF. For assessing growth cone morphology cells were fixed with 25% sucrose in 4% PFA/PBS and stained with either Alexa 594-phalloidin (Molecular Probes) alone or plus anti-III β-tubulin antibody (Tuj-1, Covance).

COC(=O)[C@@]1(O)C[C@H]2O[C@]1(C)n1c3ccccc3c3c4c(c5c6ccccc6n2c5c31)C(=O)NC4 [Kn252a]
cell death (Tunel-positive cells) [1]: even greater degree of cell death

NGF: recombinant NGF, nerve growth factor, a neurotrophin
nuclear translocation of EGFP-NFATc4, no TrkA transfected (NFATc4; E15.5 cortical neurons lacking TrkA (data not shown)): did not induce translocation
nuclear translocation of EGFP-NFATc4, TrkA co-transfected (NFATc4; cortical neurons co-transfected with EGFP-NFATc4 and TrkA, 100 ng/ml NGF): led to rapid translocation of EGFP-NFATc4 into the nucleus
activation of NFAT-dependent transcription [2]: did not activate transcription from this reporter unless TrkA was introduced

B1: BDNF: recombinant BDNF (Gibco), a neurotrophin (protein, UniProt P23560 19-247, looked up)
Neurotrophic factor BDNF …: APMKEANIRGQGGLAYPGVRTHGTLESVNGPKAGSRGLTSLADTFEHVIEELLDEDQKVRPNEENNKDADLYTSRVMLSSQVPLEPPLLFLLEEYKNYLDAANMSMRVRRHSDPARRGELSVCDSISEWVTAADKKTAVDMSGGTVTVLEKVPVSKGQLKQYFYETKCNPMGYTKEGCRGIDKRHWNSQCRTTQSYVRALTMDSKKRIGWRFIRIDTSCVCTLTIKRGR
time to nuclear translocation of EGFP-tagged NFATc4 (NFATc4; E15.5 cortical neurons, 100 ng/ml BDNF): ≤ 30 min
activation of NFAT-dependent transcription [2]: powerful activator of NFAT-dependent transcription

B2: Sema3A: semaphorin 3-A, induces growth cone collapse (protein, UniProt Q14563 21-771, looked up)
Semaphorin-3A: NYQNGKNNVPRLKLSYKEMLESNNVITFNGLANSSSYHTFLLDEERSRLYVGAKDHIFSFDLVNIKDFQKIVWPVSYTRRDECKWAGKDILKECANFIKVLKAYNQTHLYACGTGAFHPICTYIEIGHHPEDNIFKLENSHFENGRGKSPYDPKLLTASLLIDGELYSGTAADFMGRDFAIFRTLGHHHPIRTEQHDSRWLNDPKFISAHLISESDNPEDDKVYFFFRENAIDGEHSGKATHARIGQICKNDFGGHRSLVNKWTTFLKARLICSVPGPNGIDTHFDELQDVFLMNFKDPKNPVVYGVFTTSSNIFKGSAVCMYSMSDVRRVFLGPYAHRDGPNYQWVPYQGRVPYPRPGTCPSKTFGGFDSTKDLPDDVITFARSHPAMYNPVFPMNNRPIVIKTDVNYQFTQIVVDRVDAEDGQYDVMFIGTDVGTVLKVVSIPKETWYDLEEVLLEEMTVFREPTAISAMELSTKQQQLYIGSTAGVAQLPLHRCDIYGKACAECCLARDPYCAWDGSACSRYFPTAKRRTRRQDIRNGDPLTHCSDLHHDNHHGHSPEERIIYGVENSSTFLECSPKSQRALVYWQFQRRNEERKEEIRVDDHIIRTDQGLLLRSLQQKDSGNYLCHAVEHGFIQTLLKVTLEVIDTEHLEELLHKDDDGDGSKTKEMSNSMTPSQKVWYRDFMQLINHPNLNTMDEFCEQVWKRDRKQRRQRPGHTPGNSNKWKHLQENKKGRNRRTHEFERAPRSV
collapse of growth cones on matrigel [3]: induced efficient collapse of growth cones
